Columns and labels:
[1] = test system: Strain IIIB, wild type HIV-LAI strain; assay: Antiviral spectrum cellular assay, strain IIIB; format: cell-based; conditions: Human immunodeficiency virus 1, IIIB, read-out: pEC50 against strain IIIB (converted)
Experimental: (§1) Because of the increasing emergence of drug resistant HIV strains, the present compounds were tested for their potency against clinically isolated HIV strains harboring several mutations. These mutations are associated with resistance to reverse transcriptase inhibitors and result in viruses that show various degrees of phenotypic cross-resistance to the currently commercially available drugs such as for instance AZT and delavirdine.
(§2) The antiviral activity of the compound of the present invention is evaluated in the presence of wild type HIV and HIV mutants bearing mutations at the reverse transcriptase gene. The activity of the compounds is evaluated using a cellular assay and the residual activity is expressed in pEC50 values. The columns IIIB and A-G in the table list the pEC50 values against various strains IIIB, A-G.
Strain IIIB is wild type HIV-LAI strain;

[2] = test system: Strain A, mutation Y181C in HIV reverse transcriptase; assay: Antiviral spectrum cellular assay, strain A; format: cell-based; conditions: Human immunodeficiency virus 1, read-out: pEC50 against strain A (converted)
Experimental: as §1, §2
Strain A contains mutation Y181C in HIV reverse transcriptase, […]

[3] = test system: Strain B, mutation K103N in HIV reverse transcriptase; assay: Antiviral spectrum cellular assay, strain B; format: cell-based; conditions: Human immunodeficiency virus 1, read-out: pEC50 against strain B (converted)
Experimental: as §1, §2
Strain B contains mutation K103N in HIV reverse transcriptase, […]

[4] = test system: Strain C, mutation L100I in HIV reverse transcriptase; assay: Antiviral spectrum cellular assay, strain C; format: cell-based; conditions: Human immunodeficiency virus 1, read-out: pEC50 against strain C (converted)
Experimental: as §1, §2
Strain C contains mutation L100I in HIV reverse transcriptase, […]

[5] = test system: Strain D, mutation Y188L and S162K in HIV reverse transcriptase; assay: Antiviral spectrum cellular assay, strain D; format: cell-based; conditions: Human immunodeficiency virus 1, read-out: pEC50 against strain D (converted)
Experimental: as §1, §2
Strain D contains mutation Y188L and S162K in HIV reverse transcriptase, […]

[6] = test system: Strain E, mutations L100I and K103N in HIV reverse transcriptase; assay: Antiviral spectrum cellular assay, strain E; format: cell-based
Experimental: as §1, §2
Strain E contains mutations L100I and K103N in HIV reverse transcriptase, […]

[7] = test system: Strain F, mutations K101E and K103N in HIV reverse transcriptase; assay: Antiviral spectrum cellular assay, strain F; format: cell-based
Experimental: as §1, §2
Strain F contains mutations K101E and K103N in HIV reverse transcriptase.

[8] = test system: Strain G, mutations L100I, K103N, E138G, V179I, Y181C, L214F, V276V/I and A327A/V in HIV reverse transcriptase; assay: Antiviral spectrum cellular assay, strain G; format: cell-based; conditions: for EC50: Human immunodeficiency virus 1, read-out: pEC50 against strain G (converted)
Experimental: as §1, §2

[9] = compared to reference compound A

Row | SMILES | EC50 [1] | EC50 [2] | EC50 [3] | EC50 [4] | EC50 [5] | EC50 ([6]; Human immunodeficiency virus 1, read-out: pEC50 against strain E (converted)) | activity against double mutant strain E compared to reference compound A [6, 9] | EC50 ([7]; Human immunodeficiency virus 1, read-out: pEC50 against strain F (converted)) | activity against double mutant strain F compared to reference compound A [7, 9] | EC50 [8] | activity against multiple mutated strain G compared to reference compound A [8, 9] | melting point
1 | Cc1cc(C#N)cc(C)c1Oc1nc(Nc2ccc(C#N)cc2)nc(NO)c1Br [Compound 1, 4-[[6-hydroxylamino-5-bromo-2-[(4-cyanophenyl)amino]-4-pyrimidinyl]oxy]-3,5-dimethylbenzonitrile] | 3.98 nM | 12 nM | 2.34 nM | 1.2 nM | 3.02 nM | 1.86 nM | improved activity | 3.63 nM | improved activity | 479 nM | improved activity | 211 °C (dec.)
2 | Cc1cc(C#N)cc(C)c1Oc1nc(Nc2ccc(C#N)cc2)nc(N)c1Br [Compound A, reference compound] | 2.82 nM | 10 nM |  |  |  |  |  |  |  | 5750 nM |  | 

From patent US8119801B2, “HIV inhibiting 2-(4-cyanophenyl)-6-hydroxylaminopyrimidines” (priority 2005, dated 2012)
